Results taken from US6737383B1, “Herbicidal oxadiazolidines” (priority 1999, dated 2004).

Assays:
[1] = system: wheat; experiment: Test B pre/postemergence wheat; type: in vivo, Triticum aestivum
In short: (§1)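 Response is a visual 0-to-10 score relative to untreated plants, where 0 means no effect and 10 means complete control, taken twelve to sixteen days after application. Treatments went onto soil at planting and onto foliage of 1- to 4-leaf plants, using a surfactant-containing non-phytotoxic solvent.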

[2] = system: velvetleaf; experiment: Test B pre/postemergence velvetleaf; type: in vivo, Abutilon theophrasti
In short: as §1

[3] = system: bamyardgrass; experiment: Test B flood test barnyardgrass; type: in vivo, Echinochloa crus-galli
In short: (§2)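 Each value is a visual injury score relative to controls, with 10 meaning complete control and 0 no effect. Evaluation took place twelve to sixteen days after the 2-leaf-stage plants were treated and kept in the greenhouse.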

[4] = system: soybean; experiment: Test B pre/postemergence soybean; type: in vivo, Glycine max
In short: as §1

[5] = system: corn; experiment: Test B pre/postemergence corn; type: in vivo, Zea mays
In short: as §1

[6] = system: blackgrass; experiment: Test B pre/postemergence blackgrass; type: in vivo, Alopecurus myosuroides
In short: as §1

[7] = system: wild oat; experiment: Test B pre/postemergence wild oat; type: in vivo, Avena fatua
In short: as §1

[8] = system: crabgrass; experiment: Test B pre/postemergence crabgrass; type: in vivo, Digitaria sanguinalis
In short: as §1

[9] = system: duck salad; experiment: Test B flood test duck salad; type: in vivo, Heteranthera limosa
In short: as §2

[10] = system: cocklebur; experiment: Test B pre/postemergence cocklebur; type: in vivo, Xanthium strumarium
In short: as §1

[11] = system: surinam grass; experiment: Test B pre/postemergence surinam grass; type: in vivo, Brachiaria decumbens
In short: as §1

[12] = system: rape; experiment: Test B pre/postemergence rape; type: in vivo, Brassica napus
In short: as §1

[13] = system: giant foxtail; experiment: Test B pre/postemergence giant foxtail; type: in vivo, Setaria faberii
In short: as §1

[14] = system: bedstraw; experiment: Test B pre/postemergence bedstraw; type: in vivo, Galium aparine
In short: as §1

[15] = system: smallflower flatsedge; experiment: Test B flood test smallflower flatsedge; type: in vivo, Cyperus difformis
In short: as §2

[16] = system: morningglory; experiment: Test B pre/postemergence morningglory; type: in vivo, Ipomoea hederacea
In short: as §1

[17] = Postemergence, Rate 62 g/ha, scale 0 to 10, 0 is no effect, 10 is complete control
[18] = Postemergence, Rate 250 g/ha, scale 0 to 10, 0 no effect, 10 complete control
[19] = Preemergence, Rate 62 g/ha, scale 0 to 10, 0 is no effect, 10 is complete control
[20] = Preemergence, Rate 125 g/ha, scale 0 to 10 (0 no effect, 10 complete control)
[21] = Preemergence, Rate 250 g/ha, scale of 0 to 10 where 0 is no effect and 10 is complete control
[22] = Preemergence, Rate 500 g/ha, scale 0 (no effect) to 10 (complete control)
[23] = Rate 125 g/ha, Postemergence, scale 0 to 10, 0 no effect, 10 complete control
[24] = Rate 125 g/ha, Postemergence section (flood test species), scale 0 to 10, 0 no effect, 10 complete control
[25] = Rate 500 g/ha, Postemergence section of Table B, 0 to 10 scale (0 no effect, 10 complete control)
[26] = flood test, listed under Postemergence, Rate 250 g/ha, scale 0 to 10, 0 no effect, 10 complete control
[27] = Rate 500 g/ha, Postemergence, 0 to 10 scale (0 no effect, 10 complete control)

CC(C)N(C(=O)n1oc(=O)n(-c2ccc(Cl)cc2C(F)(F)F)c1=O)c1ccc(F)cc1 [Compound 20]
Wheat plant response rating [1, 17]: 0
Wheat plant response rating [1, 18]: 0
Plant response rating, Wheat [1, 19]: 0
Plant response rating, Wheat [1, 20]: 0
Plant response rating, Wheat [1, 21]: 0
Wheat plant response rating [1, 22]: 0
Wheat plant response rating [1, 23]: 0
Velvetleaf plant response rating [2, 17]: 0
Velvetleaf plant response rating [2, 18]: 0
Plant response rating, Velvetleaf [2, 19]: 0
Plant response rating, Velvetleaf [2, 20]: 0
Plant response rating, Velvetleaf [2, 21]: 0
Velvetleaf plant response rating [2, 22]: 0
Velvetleaf plant response rating [2, 23]: 0
Barnyardgrass plant response rating [3, 17]: 0
Barnyardgrass plant response rating [3, 24]: 0
Barnyardgrass plant response rating [3, 25]: 0
Barnyardgrass plant response rating [3, 26]: 0
Soybean plant response rating [4, 17]: 3
Soybean plant response rating [4, 18]: 3
Plant response rating, Soybean [4, 19]: 0
Plant response rating, Soybean [4, 20]: 0
Plant response rating, Soybean [4, 21]: 0
Soybean plant response rating [4, 22]: 0
Soybean plant response rating [4, 23]: 3
Corn plant response rating [5, 17]: 0
Corn plant response rating [5, 18]: 0
Plant response rating, Corn [5, 19]: 0
Plant response rating, Corn [5, 20]: 0
Plant response rating, Corn [5, 21]: 0
Corn plant response rating [5, 22]: 0
Corn plant response rating [5, 23]: 0
Corn plant response rating [5, 27]: 0
Blackgrass plant response rating [6, 17]: 0
Blackgrass plant response rating [6, 18]: 0
Plant response rating, Blackgrass [6, 19]: 0
Plant response rating, Blackgrass [6, 20]: 1
Plant response rating, Blackgrass [6, 21]: 1
Blackgrass plant response rating [6, 22]: 5
Blackgrass plant response rating [6, 23]: 0
Blackgrass plant response rating [6, 27]: 2
Wild oats plant response rating [7, 17]: 0
Wild oats plant response rating [7, 18]: 0
Plant response rating, Wild oats [7, 20]: 0
Plant response rating, Wild oats [7, 21]: 0
Wild oats plant response rating [7, 22]: 0
Wild oats plant response rating [7, 23]: 0
Crabgrass plant response rating [8, 17]: 0
Crabgrass plant response rating [8, 18]: 3
Plant response rating, Crabgrass [8, 19]: 1
Plant response rating, Crabgrass [8, 20]: 2
Plant response rating, Crabgrass [8, 21]: 6
Crabgrass plant response rating [8, 22]: 7
Crabgrass plant response rating [8, 23]: 0
Crabgrass plant response rating [8, 27]: 7
Ducksalad plant response rating [9, 17]: 0
Ducksalad plant response rating [9, 24]: 0
Ducksalad plant response rating [9, 25]: 0
Ducksalad plant response rating [9, 26]: 0
Cocklebur plant response rating [10, 17]: 0
Cocklebur plant response rating [10, 18]: 0
Plant response rating, Cocklebur [10, 19]: 0
Plant response rating, Cocklebur [10, 20]: 0
Plant response rating, Cocklebur [10, 21]: 0
Cocklebur plant response rating [10, 22]: 0
Cocklebur plant response rating [10, 23]: 0
Cocklebur plant response rating [10, 27]: 0
B. signalgrass plant response rating [11, 17]: 0
B. signalgrass plant response rating [11, 18]: 0
Plant response rating, B. signalgrass [11, 19]: 0
Plant response rating, B. signalgrass [11, 20]: 0
Plant response rating, B. signalgrass [11, 21]: 0
B. signalgrass plant response rating [11, 22]: 0
B. signalgrass plant response rating [11, 23]: 0
B. signalgrass plant response rating [11, 27]: 0
Rape plant response rating [12, 17]: 0
Rape plant response rating [12, 18]: 0
Plant response rating, Rape [12, 19]: 0
Plant response rating, Rape [12, 20]: 0
Plant response rating, Rape [12, 21]: 0
Rape plant response rating [12, 22]: 0
Rape plant response rating [12, 23]: 0
Rape plant response rating [12, 27]: 0
Giant foxtail plant response rating [13, 17]: 0
Giant foxtail plant response rating [13, 18]: 1
Plant response rating, Giant foxtail [13, 19]: 3
Plant response rating, Giant foxtail [13, 20]: 5
Plant response rating, Giant foxtail [13, 21]: 7
Giant foxtail plant response rating [13, 22]: 9
Giant foxtail plant response rating [13, 23]: 0
Giant foxtail plant response rating [13, 27]: 1
Bedstraw plant response rating [14, 17]: 3
Bedstraw plant response rating [14, 18]: 4
Plant response rating, Bedstraw [14, 19]: 0
Plant response rating, Bedstraw [14, 20]: 0
Plant response rating, Bedstraw [14, 21]: 2
Bedstraw plant response rating [14, 22]: 6
Bedstraw plant response rating [14, 23]: 3
Bedstraw plant response rating [14, 27]: 5
S. Flatsedge plant response rating [15, 17]: 0
S. Flatsedge plant response rating [15, 24]: 0
S. Flatsedge plant response rating [15, 26]: 0
Morningglory plant response rating [16, 17]: 4
Morningglory plant response rating [16, 18]: 7
Plant response rating, Morningglory [16, 19]: 0
Plant response rating, Morningglory [16, 20]: 0
Plant response rating, Morningglory [16, 21]: 0
Morningglory plant response rating [16, 22]: 0
Morningglory plant response rating [16, 23]: 7
Morningglory plant response rating [16, 27]: 8
